The values that follow come from patent US6916805B2, “Quinoxalinones as serine protease inhibitors” (Warner-Lambert Company LLC, priority 1998, dated 2005).

pIC50: −log10 of the molar value.

Test [1] addresses T1, human tissue factor/factor VIIa complex (Homo sapiens, UniProt P08709).
T1 construct: 50 μL human factor VIIa (Enzyme Research Laboratories); purchased Enzyme Research Laboratories (factor VIIa); American Diagnostica (recombinant tissue factor)
Description: Tissue factor/factor VIIa inhibition, cleavage of Spectrozyme VIIa. The conditions noted are these: read-out: VIIa % inhib. @ 100 μM. It is filed as biochemical. As for the experimental part: The ability of compounds to act as inhibitors of the catalytic activity of human tissue factor/factor VIIa complex is assessed by determination of that concentration of test substance that inhibits by 50% (IC50 the ability of a complex of human recombinant tissue factor/factor VIIa to cleave the chromogenic substrate Spectrozyme VIIa (CH3SO2-D-CHA-Arg-pNA*AcOH, American Diagnostica). Typically, 50 μL human factor VIIa (Enzyme Research Laboratories) is incubated for 10 minutes as a 1:1 mixture (5 nM final each) with 95 μL recombinant human tissue factor (American Diagnostica) in a modified HBSA buffer (10 mM Hepes, 5 mM CaCl2, 0.1% BSA, pH 8.0). Then, 5 μL of the test substance in DMSO (2% final) is added and incubated for 60 minutes at room temperature. Following preheating to 37° C. for 5 minutes, to this mixture is added 100 μL of Spectrozyme VIIa (500 μM final) in modified HBSA, and the velocity of Spectrozyme VIIa hydrolysis is determined at 37° C. by measuring the optical density at an OD405 nm every 10 seconds over 5 minutes using a ThermoMax® Kinetic Microplate Reader.

The target of another test is T2, human factor Xa (Homo sapiens, UniProt P00742).
T2 construct: 145 μL human factor Xa (1 nM final, Enzyme Research Laboratories); purchased Enzyme Research Laboratories
Description: Factor Xa IC50, cleavage of chromogenic substrate S2765. Format: biochemical. As to the method: The ability of compounds to act as inhibitors of human factor Xa catalytic activity is assessed by determination of that concentration of test substance that inhibits by 50% (IC50) the ability of human factor Xa to cleave the chromogenic substrate S2765 (N-CBz-D-Arg-L-Gly-L-Arg-p-nitroanilide. 2HCl, DiaPharma). Typically, 145 μL human factor Xa (1 nM final, Enzyme Research Laboratories) in 10 mM HEPES, 150 mM NaCl, 0.1% BSA, pH 7.4 (HBSA buffer), and 5 μL of test substance in DMSO (2% final) are incubated for 60 minutes at room temperature. Following preheating to 37° C. for 5 minutes, to this mixture is added 100 μL of S2765 in HBSA buffer. The velocity of S2765 hydrolysis is determined at 37° C. by measuring the initial rate of change of the optical density at OD405 nm every 10 seconds for 5 minutes using a ThermoMax® Kinetic Microplate Reader.

In a further test the target is T3, human thrombin (Homo sapiens, UniProt P00734).
T3 construct: purchased Enzyme Research Laboratories
Description: Thrombin IC50, cleavage of Chromozym TH. It is filed as biochemical. As for the experimental part: The ability of compounds to act as inhibitors of human thrombin catalytic activity is assessed by determination of that concentration of test substance that inhibits by 50% (IC50) the ability of human thrombin to cleave the chromogenic substrate Chromozym TH (Tosyl-Gly-Pro-Arg-pNA*Ac, Boehringer Mannheim). Typically, 145 μL human thrombin (0.75 nM, Enzyme Research Laboratories) in a HPB buffer (10 mM HEPES, 100 mM NaCl, 0.05% BSA, 0.1% PEG-8000, pH 7.4) and 5 μL of test substance in DMSO (2% final) are incubated for 60 minutes at room temperature. Following preheating to 37° C. for 5 minutes, to this mixture is added 100 μL of Chromozym TH in HPB buffer. The velocity of Chromozym TH hydrolysis is determined at 37° C. by measuring the initial rate of change of the optical density at OD405 nm every 10 seconds for 5 minutes using a ThermoMax® Kinetic Microplate Reader.

A further test relates to human trypsin. Nature of the test: Trypsin IC50, cleavage of S2222. Format: biochemical. As to the method: The ability of compounds to act as inhibitors of human trypsin catalytic activity is assessed by determination of that concentration of test substance that inhibits by 50% (IC50) the ability of human trypsin to cleave the chromogenic substrate S2222 (N-Bz-L-Ile-L-Glu-L-Gly-L-Arg-p-nitroanilide. HCl, DiaPharma). Typically, 145 μL human trypsin (0.5 nM final) in 10 mM HEPES, 150 mM NaCl, 0.1% BSA, and 5 μL of the test substance in DMSO (2% final) are incubated for 60 minutes at room temperature. Following preheating to 37° C. for 5 minutes, to this mixture is added 100 μL of S2222 in HBSA buffer (100 μM final), and the velocity of S2222 hydrolysis is determined at 37° C. by measuring the optical density at OD405 nm every 10 seconds over 5 minutes using a ThermoMax® Kinetic Microplate Reader.

Test [2] concerns pooled plasma from human volunteers. Description: In vitro diluted prothrombin time (dPT) assay. Format: biochemical. As for the experimental part:
Rat, rabbit, dog, and human blood (typically 1.8 mL) was collected and added to a sodium citrate solution (3.8%) to afford a 1:10 dilution. After centrifugation (2000 g for 10 minutes), the blood plasma was stored at −70° C. to 0° C. Conventional prothrombin time (PT) tests were carried out in the presence of various concentrations of test compound and the concentration of test compound required to double the clotting time determined. Typically, the test compound (50 μL volume of varying concentrations 0.1 μM to 1000 μM) and blood plasma (100 μL volume) were incubated at 37° C. for 10 minutes, and then tissue thromboplastin, typically Neoplastine from American Bioproducts, with calcium was added. Fibrin formation and the time required for a clot to form were determined using an automated ST4 Clot Detection System in duplicate.
The effects of Example 2 on dPT were evaluated using pooled plasma from human volunteers.

The target in test [3] is T4, human prothrombinase (PTase) complex (Homo sapiens, UniProt P00742).
T4 construct: 2.5 pM human factor Xa (Enzyme Research Laboratories); purchased Enzyme Research Laboratories
Description: In vitro assay for human prothrombinase. Format: biochemical. The conditions noted are these: PTase activity expressed by thrombin activity. As for the experimental part:
For determination of IC50 (PTase) of the compounds of the invention, PTase activity was expressed by thrombin activity.
PTase reaction was performed in 100 μL of mixture containing PTase (20 μM) PCPS (Avanti Polar Lipids following a procedure modified from Barenholz et al., Biochemistry, 1977;16:2806-2810) in a 30:70 ratio, 2.5 nM human factor Va (Enzyme Research Laboratories), and 2.5 pM human factor Xa (Enzyme Research Laboratories) in modified HEPES buffer (10 mM Hepes, 150 mM NaCl, 0.1% PEG-8000, 0.05% BSA, 2.5 mM CaCl2, pH 7.4), 3 μM human prothrombin (Enzyme Research Laboratories) and varied concentrations of the test compounds (1 nM to 100 μM in DMSO, 2% final). Reaction was started by co-incubating PTase with test compound for 60 minutes at room temperature, followed by addition of prothrombin for 6 minutes at room temperature. Next, the reaction was quenched by the addition of 100 μL of 20 mM EDTA. Activity of the thrombin (product) is then measured in the presence of 50 μL S2238 (250 μM final, H-D-Phe-Pip-Arg-pNA*Ac, DiaPharma) as substrate by measuring the change at 37° C. in OD405 nm for 5 minutes at 10 second intervals using a ThermoMax® Kinetic Microplate Reader.

Test [4] deals with rabbit veno-venous shunt model of thrombosis. Nature of the test: Rabbit veno-venous shunt model of thrombosis. Format: in vivo. As for the experimental part:
The effects of Example 2 on thrombosis and hemostasis has been studied in a rabbit veno-venous shunt model of thrombosis. In that model, a plastic shunt which contains cotton thread was inserted into abdominal vena cava and thrombus developed inside the shunt under control conditions. The end points of the experiment are the time to occlusion (TTO) and thrombus weight. Example 2 was given to the rabbit via jugular vein as a single bolus followed by constant infusion for 140 minutes. Three doses have been tested in a total of 15 rabbits (5 rabbits in each group): 30 μg/kg+1 μg/kg/min, 60 μg/kg+2 μg/kg/min, and 480 μg/kg+16 μg/kg/min. […] In the highest dose group, TTO was increased from 17 minutes under control condition to 100 minutes. The net thrombus weight was reduced from 50 to 20 mg in that group. Example 2, at the highest dose, prolonged aPTT, PT, by 5-, and 3.9-fold, respectively.

In test [5] the test system is dog electrolytic injury model of thrombosis. Nature of the test: Dog electrolytic injury model of thrombosis. It is filed as in vivo. An excerpt:
The effects of Example 2 on thrombosis and hemostasis has been studied in a dog electrolytic injury model of thrombosis. In this model, the thrombosis influencing event is an electrical current is applied to the femoral vein (or artery) by applying an anodal direct current (300 uA) to the intimal surface of the vessel in the presence of restricted blood flow (Goldblatt clamps placed around the vessel). The end points of the experiment are the time to occlusion (TTO) and thrombus weight. […] In the highest dose group, TTO was increased to near maximal effect of 240 minutes in both arteries and veins. The net thrombus weight was reduced from 50 mg to 18 mg [artery] and 110 mg to 15 mg [vein] in the highest dose group. Example 2, at the highest dose, prolonged aPTT, PT, by 1.4-, and 1.75-fold, respectively.

Where [6] appears, read: three doses, bolus + infusion 140 minutes.
Setting [7] is: infusion 2.5, 5 and 10 μg/kg/min.

T2 sequence (P00742 235-488 limits assumed): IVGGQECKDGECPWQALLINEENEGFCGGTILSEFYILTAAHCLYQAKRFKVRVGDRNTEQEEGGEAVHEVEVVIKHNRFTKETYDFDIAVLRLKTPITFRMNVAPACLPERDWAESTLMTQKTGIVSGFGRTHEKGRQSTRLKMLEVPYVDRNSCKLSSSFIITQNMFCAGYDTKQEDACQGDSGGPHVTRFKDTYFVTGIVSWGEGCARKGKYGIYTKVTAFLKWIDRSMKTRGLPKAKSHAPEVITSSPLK
T2 sequence (P00742 41-179 limits assumed): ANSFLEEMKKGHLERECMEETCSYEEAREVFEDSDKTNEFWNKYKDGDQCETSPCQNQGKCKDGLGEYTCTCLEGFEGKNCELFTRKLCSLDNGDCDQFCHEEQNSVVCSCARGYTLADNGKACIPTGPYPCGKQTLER
T1 sequence (P08709 213-466 limits assumed): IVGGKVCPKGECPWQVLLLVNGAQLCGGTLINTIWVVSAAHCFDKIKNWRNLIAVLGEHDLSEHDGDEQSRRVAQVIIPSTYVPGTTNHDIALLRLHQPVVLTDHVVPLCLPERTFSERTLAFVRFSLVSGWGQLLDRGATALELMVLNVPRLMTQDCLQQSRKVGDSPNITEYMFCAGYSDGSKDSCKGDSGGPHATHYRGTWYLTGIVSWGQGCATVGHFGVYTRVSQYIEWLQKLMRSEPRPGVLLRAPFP
T1 sequence (P08709 61-212 limits assumed): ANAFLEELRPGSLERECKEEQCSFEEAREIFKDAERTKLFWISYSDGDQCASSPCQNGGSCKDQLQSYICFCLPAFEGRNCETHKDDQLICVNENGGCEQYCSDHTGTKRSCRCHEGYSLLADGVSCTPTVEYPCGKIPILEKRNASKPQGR
T1 sequence (P13726 33-295 partner): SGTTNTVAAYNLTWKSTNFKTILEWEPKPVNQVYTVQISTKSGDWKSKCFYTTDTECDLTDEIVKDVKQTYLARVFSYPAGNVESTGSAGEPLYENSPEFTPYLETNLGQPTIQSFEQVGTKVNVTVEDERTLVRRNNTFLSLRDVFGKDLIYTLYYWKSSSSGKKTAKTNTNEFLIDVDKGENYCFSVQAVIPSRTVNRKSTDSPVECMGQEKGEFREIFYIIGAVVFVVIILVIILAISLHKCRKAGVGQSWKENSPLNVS
T4 sequence (P00742 235-488 limits assumed): as the sequence (P00742 235-488 limits assumed) above
T4 sequence (P00742 41-179 limits assumed): as the sequence (P00742 41-179 limits assumed) above
T4 sequence (P12259 29-737 partner limits assumed): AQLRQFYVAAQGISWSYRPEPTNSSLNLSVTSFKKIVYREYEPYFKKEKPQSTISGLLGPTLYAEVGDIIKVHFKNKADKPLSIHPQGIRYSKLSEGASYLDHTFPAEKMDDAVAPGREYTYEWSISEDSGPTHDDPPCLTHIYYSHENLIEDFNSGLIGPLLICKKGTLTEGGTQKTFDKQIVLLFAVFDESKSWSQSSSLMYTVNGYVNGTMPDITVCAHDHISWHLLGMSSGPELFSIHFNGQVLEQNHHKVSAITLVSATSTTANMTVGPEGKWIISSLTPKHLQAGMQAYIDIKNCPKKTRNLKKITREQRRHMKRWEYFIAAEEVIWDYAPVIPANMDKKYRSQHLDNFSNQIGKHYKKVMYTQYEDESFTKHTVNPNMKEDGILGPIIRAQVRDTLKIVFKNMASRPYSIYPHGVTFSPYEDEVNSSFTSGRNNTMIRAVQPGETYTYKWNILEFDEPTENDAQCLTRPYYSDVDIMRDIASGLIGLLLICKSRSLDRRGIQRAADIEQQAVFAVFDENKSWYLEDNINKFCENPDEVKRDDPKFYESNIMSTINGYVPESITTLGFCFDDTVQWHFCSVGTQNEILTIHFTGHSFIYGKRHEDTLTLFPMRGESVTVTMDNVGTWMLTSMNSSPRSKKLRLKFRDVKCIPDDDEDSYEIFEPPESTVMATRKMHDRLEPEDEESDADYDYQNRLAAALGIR
T4 sequence (P12259 1574-2224 partner limits assumed): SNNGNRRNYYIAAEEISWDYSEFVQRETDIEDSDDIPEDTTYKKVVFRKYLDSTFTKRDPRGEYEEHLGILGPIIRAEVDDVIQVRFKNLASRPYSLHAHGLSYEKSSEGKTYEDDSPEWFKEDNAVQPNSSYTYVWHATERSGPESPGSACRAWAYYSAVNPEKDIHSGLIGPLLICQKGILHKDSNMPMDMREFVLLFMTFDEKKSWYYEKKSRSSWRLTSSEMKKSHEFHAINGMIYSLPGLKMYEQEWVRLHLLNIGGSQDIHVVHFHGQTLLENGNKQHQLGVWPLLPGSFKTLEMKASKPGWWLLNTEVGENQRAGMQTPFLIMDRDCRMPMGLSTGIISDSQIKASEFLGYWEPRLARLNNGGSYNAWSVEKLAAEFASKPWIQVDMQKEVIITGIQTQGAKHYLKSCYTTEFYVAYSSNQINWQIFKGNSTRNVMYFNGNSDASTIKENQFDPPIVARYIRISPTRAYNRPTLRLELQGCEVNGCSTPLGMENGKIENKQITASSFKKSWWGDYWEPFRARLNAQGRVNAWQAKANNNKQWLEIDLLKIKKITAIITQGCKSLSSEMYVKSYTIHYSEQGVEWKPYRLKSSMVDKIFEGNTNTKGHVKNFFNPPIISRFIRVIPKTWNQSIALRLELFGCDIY

As for `C[C@@H]1CCC[C@H](C)N1CCCCCn1c(=O)c(-c2cccc(C(=N)N)c2)nc2ccccc21` [Example 1, 3-[3-(Amidino)phenyl]-1-{5-[(2R,6S)-2,6-dimethylhexahydro-1-pyridinyl]pentyl}-1,2-dihydro-2-quinoxalinone], the inhibition at 100 µM in test [1] worked out at 16%. Further, the results for the pIC50 on human factor Xa, on human thrombin and in the test on human trypsin were 7.19, 5.53 and 5.69, respectively.

For `C[C@@H]1CCC[C@H](C)N1CCCCCn1c(=O)c(-c2cc(C(=N)N)ccc2O)nc2ccccc21` [Example 2, 3-(4-5-[(2R,6S)-2,6-dimethyltetrahydro-1(2H)-pyridinyl]pentyl-3-oxo-3,4-dihydro-2-quinoxalinyl)-4-hydroxybenzenecarboximidamide], the “concentration which caused 2 fold prolongation of dPT” value in test [2] was found to be 0.05 µM. Moreover, in test [2] (0.1 μM), the “fold increase in dPT” value is given as 3.2 fold. In test [2] (over concentrations), the “effect on dPT” value is recorded as “concentration-dependently prolonged dPT”. Moreover, the inhibition at 100 µM in test [1] was 13%. Further, the pIC50 in test [3] was 8.82; against human factor Xa it was 8.05; at human thrombin, 5.15; in the test with human trypsin it was 5.61. The entries for the “prolongation of PT” value in test [4] (highest dose) and in test [5] (highest dose) were 3.9 fold and 1.75 fold, respectively. Also, the results for the “prolongation of aPTT” value in test [4] (highest dose) and in test [5] (highest dose) were 5 fold and 1.4 fold, respectively. The net thrombus weight in test [4] (highest dose 480 μg/kg + 16 μg/kg/min iv, control 50 mg) is 20 mg. The “time to occlusion (TTO)” value in test [4] (highest dose 480 μg/kg + 16 μg/kg/min iv, control 17 minutes) was 100 min; in test [5] (highest dose 10 μg/kg/min infusion, both arteries and veins), approximately 240 min. The “effect on net thrombus weight” value in test [4] (setting [6]) and in test [5] (setting [7]) was “reduced the net thrombus weight” in each case. Besides, the “effect on time to occlusion” value in test [4] (setting [6]) and in test [5] (setting [7]) was “dose-dependently prolonged the time to occlusion” throughout. Besides, the “net thrombus weight [artery]” value in test [5] (highest dose 10 μg/kg/min, artery, control 50 mg) was found to be 18 mg. Moreover, the “net thrombus weight [vein]” value in test [5] (highest dose 10 μg/kg/min, vein, control 110 mg) came out at 15 mg.
